Earlier results in patent US9456985B2, “Sustained-released product comprising a combination of a non-opioid amine and a non-steroidal, anti-inflammatory drug” (Upsher-Smith Laboratories, Inc., priority 2009, dated 2016).
Counter-ions that a name gives are not always drawn.

Conditions: no test described

| SMILES | solubility (descriptive) |
| --- | --- |
| NC12CC3CC(CC(C3)C1)C2 [Amantadine hydrochloride] | freely soluble |
| CC12CC3CC(C)(C1)CC(N)(C3)C2 [memantine hydrochloride, Memantine hydrochloride] | soluble in water |
